Drawing on patent US20150225369A1, “DDR2 INHIBITORS FOR THE TREATMENT OF OSTEOARTHRITIS” (Merck Patent GmbH, priority 2012, published 2015), this text covers IC50 for 36 molecules.

The target in this experiment is T1, His-tagged human recombinant DDR-2 kinase domain (His-TEV-DDR2 467-855 aa) (Homo sapiens, UniProt Q16832).
T1 construct: His-TEV-DDR2 467-855 aa
T1 sequence (Q16832 467-855): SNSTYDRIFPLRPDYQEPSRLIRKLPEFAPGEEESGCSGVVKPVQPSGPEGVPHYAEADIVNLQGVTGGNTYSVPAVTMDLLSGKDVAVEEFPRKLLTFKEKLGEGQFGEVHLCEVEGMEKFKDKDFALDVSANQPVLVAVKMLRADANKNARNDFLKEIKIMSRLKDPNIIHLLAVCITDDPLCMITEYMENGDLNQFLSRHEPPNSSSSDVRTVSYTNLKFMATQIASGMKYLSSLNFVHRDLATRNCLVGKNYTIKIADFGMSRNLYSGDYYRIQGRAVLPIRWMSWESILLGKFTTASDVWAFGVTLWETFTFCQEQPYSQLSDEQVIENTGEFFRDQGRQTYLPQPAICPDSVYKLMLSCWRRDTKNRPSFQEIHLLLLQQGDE
Description: Autophosphorylation assay for biochemical activity testing of DDR2 (HTRF). Particulars: biochemical DDR2 autophosphorylation. As for the experimental part: The autophosphorylation assay was run in two steps: the enzymatic reaction in which His-tagged DDR2 with ATP as co-substrate phosphorylates itself and the detection reaction where a time resolved FRET between XL665® labelled anti-6His antibody bound to the His-tag of the enzyme and cryptate labelled anti-phospho-Tyrosine-antibody (PT66) bound the phosphorylated Tyrosine residue of DDR2 was analysed. The autophosphorylation activity was detectable directly via the increase in HTRF signal.
The autophosphorylation assay was performed as 1536 well or 384 well HTRF® (Cisbio, Codolet, France) assay format in Greiner low volume medium binding 384-well microtiter plates and was used for high throughput screen. […] The ratio of the emission signals was determined. The full value used was the inhibitor-free reaction.
For orientation: In TR-FRET formats the signal depends on donor and acceptor labels being close together.

Regarding `COc1cccc(NC(=O)NCc2ccc(Oc3ccncc3)cc2)c1` [compound 45, 1-(3-Methoxy-phenyl)-3-[4-(pyridin-4-yloxy)-benzyl]-urea], the IC50 (commonly the concentration that inhibits the measured activity by half) worked out at 4000 nM.

In the case of `O=C(NCc1ccc(Oc2ccncc2)cc1)Nc1ccc(F)c(C(F)(F)F)c1` [compound 46, 1-(4-Fluoro-3-trifluoromethyl-phenyl)-3-[4-(pyridin-4-yloxy)-benzyl]-urea], the IC50 amounted to 100 nM.

For the molecule `CC(=O)c1ccc(NC(=O)NCc2ccc(Oc3ccncc3)cc2)cc1` [compound 47, 1-(4-Acetyl-phenyl)-3-[4-(pyridin-4-yloxy)-benzyl]-urea], the IC50 came out at 8800 nM.

Turning to `O=C(NCc1ccc(Oc2ccncc2)cc1)Nc1ccccc1Br` [compound 48, 1-(2-Bromo-phenyl)-3-[4-(pyridin-4-yloxy)-benzyl]-urea], the IC50 was not below 100000 nM.

Consider `CC(C)c1ccc(NC(=O)NCc2ccc(Oc3ccncc3)cc2)cc1` [compound 49, 1-(4-Isopropyl-phenyl)-3-[4-(pyridin-4-yloxy)-benzyl]-urea], for which the IC50 was found to be 9600 nM.

Consider `Cc1ccc(Cl)cc1NC(=O)NCc1ccc(Oc2ccncc2)cc1` [compound 50, 1-(5-Chloro-2-methyl-phenyl)-3-[4-(pyridin-4-yloxy)-benzyl]-urea], for which the IC50 worked out at 1700 nM.

On to `CSc1ccc(NC(=O)NCc2ccc(Oc3ccncc3)cc2)cc1` [compound 51, 1-(4-Methylsulfanyl-phenyl)-3-[4-(pyridin-4-yloxy)-benzyl]-urea], for which the IC50 was determined as 10000 nM.

On to `CCc1ccc(NC(=O)NCc2ccc(Oc3ccncc3)cc2)cc1` [compound 52, 1-(4-Ethyl-phenyl)-3-[4-(pyridin-4-yloxy)-benzyl]-urea], for which the IC50 came out at 9900 nM.

As to `O=C(NCc1ccc(Oc2ccncc2)cc1)Nc1cccc(Br)c1` [compound 53, 1-(3-Bromo-phenyl)-3-[4-(pyridin-4-yloxy)-benzyl]-urea], the IC50 is 56 nM.

As to `Cc1cc(Cl)ccc1NC(=O)NCc1ccc(Oc2ccncc2)cc1` [compound 54, 1-(4-Chloro-2-methyl-phenyl)-3-[4-(pyridin-4-yloxy)-benzyl]-urea], the IC50 was not below 100000 nM.

For the molecule `O=C(NCc1ccc(Oc2ccncc2)cc1)Nc1ccc(OC(F)(F)F)cc1` [compound 55, 1-[4-(Pyridin-4-yloxy)-benzyl]-3-(4-trifluoromethoxy-phenyl)-urea], the IC50 amounted to 7500 nM.

Regarding `CC(C)(C)c1ccc(NC(=O)NCc2ccc(Oc3ccncc3)cc2)cc1` [compound 56, 1-(4-tert-Butyl-phenyl)-3-[4-(pyridin-4-yloxy)-benzyl]-urea], the IC50 is 16000 nM.

For the molecule `O=C(NCc1ccc(Oc2ccncc2)cc1)Nc1cc(Cl)cc(Cl)c1` [compound 57, 1-(3,5-Dichloro-phenyl)-3-[4-(pyridin-4-yloxy)-benzyl]-urea], the IC50 came out at 1200 nM.

Consider `Cc1cc(NC(=O)NCc2ccc(Oc3ccncc3)cc2)ccc1Br` [compound 58, 1-(4-Bromo-3-methyl-phenyl)-3-[4-(pyridin-4-yloxy)-benzyl]-urea], for which the IC50 was determined as 4700 nM.

`Cc1ccc(NC(=O)NCc2ccc(Oc3ccncc3)cc2)cc1C` [compound 59, 1-(3,4-Dimethyl-phenyl)-3-[4-(pyridin-4-yloxy)-benzyl]-urea]: the IC50 is 2100 nM.

With `COc1ccc(NC(=O)NCc2ccc(Oc3ccncc3)cc2)cc1Cl` [compound 60, 1-(3-Chloro-4-methoxy-phenyl)-3-[4-(pyridin-4-yloxy)-benzyl]-urea], the IC50 is 2800 nM.

Consider `CCc1cccc(NC(=O)NCc2ccc(Oc3ccncc3)cc2)c1` [compound 61, 1-(3-Ethyl-phenyl)-3-[4-(pyridin-4-yloxy)-benzyl]-urea], for which the IC50 stood at 490 nM.

In the case of `COc1ccc(C(F)(F)F)cc1NC(=O)NCc1ccc(Oc2ccncc2)cc1` [compound 62, 1-(2-Methoxy-5-trifluoromethyl-phenyl)-3-[4-(pyridin-4-yloxy)-benzyl]-urea], the IC50 was 2 nM.

On to `CNC(=O)c1cc(Oc2ccc(CNC(=O)Nc3cc(C(F)(F)F)ccc3OC)cc2)ccn1` [compound 63, 4-{4-[3-(2-Methoxy-5-trifluoromethyl-phenyl)-ureidomethyl]-phenoxy}-pyridine-2-carboxylic acid methylamide], for which the IC50 is 61 nM.

Turning to `O=C(NCc1ccc(Oc2ccncc2)cc1)Nc1ccc(Br)c(C(F)(F)F)c1` [compound 64, 1-(4-Bromo-3-trifluoromethyl-phenyl)-3-[4-(pyridin-4-yloxy)-benzyl]-urea], the IC50 is 1700 nM.

Turning to `O=C(NCc1ccc(Oc2ccncc2)cc1)Nc1cccc(OC(F)(F)F)c1` [compound 65, 1-[4-(Pyridin-4-yloxy)-benzyl]-3-(3-trifluoromethoxy-phenyl)-urea], the IC50 is 35 nM.

On to `CNC(=O)c1cc(Oc2ccc(CNC(=O)Nc3cc(C(F)(F)F)c(Cl)cc3OC)cc2)ccn1` [compound 67, 4-{4-[3-(4-Chloro-2-methoxy-5-trifluoromethyl-phenyl)-ureidomethyl]-phenoxy}-pyridine-2-carboxylic acid methylamide], for which the IC50 is 175 nM.

Take `O=C(Nc1ccc(Cl)c(C(F)(F)F)c1)NC1(c2ccc(Oc3ccncc3)cc2)CC1` [compound 68, 1-(4-Chloro-3-trifluoromethyl-phenyl)-3-{1-[4-(pyridin-4-yloxy)-phenyl]-cyclopropyl}-urea]: the IC50 came out at 4600 nM.

As to `CNC(=O)c1cc(Oc2ccc(C(C)NC(=O)Nc3cc(C(F)(F)F)ccc3OC)cc2)ccn1` (stereo not drawn) [compound 69, 4-(4-{1-[3-(2-Methoxy-5-trifluoromethyl-phenyl)-ureido]-ethyl}-phenoxy)-pyridine-2-carboxylic acid methylamide], the IC50 came to 150 nM.

`CNC(=O)c1cc(Oc2ccc(CNC(=O)Nc3cc(C)ccc3OC)cc2)ccn1` [compound 75, 4-{4-[3-(2-Methoxy-5-methyl-phenyl)-ureidomethyl]-phenoxy}-pyridine-2-carboxylic acid methylamide]: the IC50 was determined as 69 nM.

Regarding `CNC(=O)c1cc(Oc2ccc(CNC(=O)Nc3cc(C(F)(F)F)ccc3OCCN(C)C)cc2)ccn1` [compound 77, 4-(4-{3-[2-(2-Dimethylamino-ethoxy)-5-trifluoromethyl-phenyl]-ureidomethyl}-phenoxy)-pyridine-2-carboxylic acid methylamide], the IC50 was 78 nM.

Take `CNC(=O)c1cc(Oc2ccc(CNC(=O)Nc3ccc(Cl)cc3OC)cc2)ccn1` [compound 79, 4-{4-[3-(4-Chloro-2-methoxy-phenyl)-ureidomethyl]-phenoxy}-pyridine-2-carboxylic acid methylamide]: the IC50 was determined as 410 nM.

For the molecule `CNC(=O)c1cc(Oc2ccc(CNC(=O)Nc3cc(OC)c([N+](=O)[O-])cc3OC)cc2)ccn1` [compound 81, 4-{4-[3-(2,5-Dimethoxy-4-nitro-phenyl)-ureidomethyl]-phenoxy}-pyridine-2-carboxylic acid methylamide], the IC50 was found to be 230 nM.

Turning to `CNC(=O)c1cc(Oc2ccc(CNC(=O)Nc3ccc(C(=O)OC)cc3OC)cc2)ccn1` [compound 82, 3-Methoxy-4-{3-[4-(2-methylcarbamoyl-pyridin-4-yloxy)-benzyl]-ureido}-benzoic acid methyl ester], the IC50 was 2900 nM.

Take `CNC(=O)c1cc(Oc2ccc(CNC(=O)Nc3ccccn3)cc2)ccn1` [compound 85, 4-{4-[(3-Pyridin-2-yl-ureido)-methyl]-phenoxy}-pyridine-2-carboxylic acid methylamide]: the IC50 was 3800 nM.

For the molecule `CNC(=O)c1cc(Oc2ccc(CNC(=O)Nc3ccccc3OCCCN(C)C)cc2)ccn1` [compound 86, 4-(4-{3-[2-(3-Dimethylamino-propoxy)-phenyl]-ureidomethyl}-phenoxy)-pyridine-2-carboxylic acid methylamide], the half-maximal inhibitory concentration (IC50) came to 1200 nM.

On to `CNC(=O)c1cc(Oc2ccc(CNC(=O)Nc3cccnc3OC)cc2)ccn1` [compound 87, 4-{4-[3-(2-Methoxy-pyridin-3-yl)-ureidomethyl]-phenoxy}-pyridine-2-carboxylic acid methylamide], for which the IC50 is 1600 nM.

Take `CNC(=O)c1cc(Oc2ccc(CNC(=O)Nc3cccnc3)cc2)ccn1` [compound 88, 4-{4-[(3-Pyridin-3-yl-ureido)-methyl]-phenoxy}-pyridine-2-carboxylic acid methylamide]: the IC50 came out at 15000 nM.

With `CNC(=O)c1cc(Oc2ccc(CNC(=O)Nc3ccncc3)cc2)ccn1` [compound 90, 4-{4-[(3-Pyridin-4-yl-ureido)-methyl]-phenoxy}-pyridine-2-carboxylic acid methylamide], the IC50 was not below 100000 nM.

On to `CNC(=O)c1cc(Oc2ccc(CNC(=O)Nc3ncc(C(F)(F)F)cc3Cl)cc2)ccn1` [compound 91, 4-{4-[3-(3-Chloro-5-trifluoromethyl-pyridin-2-yl)-ureidomethyl]-phenoxy}-pyridine-2-carboxylic acid methylamide], for which the IC50 was 6600 nM.

For `CNC(=O)c1cc(Oc2ccc(CNC(=O)Nc3cc(C(F)(F)F)ccc3OCC(=O)OC)cc2)ccn1` [compound 92, (2-{3-[4-(2-Methylcarbamoyl-pyridin-4-yloxy)-benzyl]-ureido}-4-trifluoromethyl-phenoxy)-acetic acid methyl ester], the IC50 was 38 nM.
